Source: patent US20220348558A1, “INHIBITORS OF ENCEPHALITIC ALPHAVIRUSES” (priority 2019, published 2022)

How the values were obtained:
Assay in all cases: microbe, parasite or virus in culture
Assay type in all cases: cell-based
VEEV TC83 = conditions: Venezuelan equine encephalitis virus, Vero 76, 48 h, read-out: VEEV TC83 EC50 nM
WEEV California = conditions: Western equine encephalitis virus, Vero 76, 48 h, read-out: WEEV California EC50 nM
EEEV BeAr 436087 = conditions: Eastern equine encephalitis virus, Vero 76, 48 h, read-out: EEEV BeAr 436087 EC50 nM
EEEV FL93-939 = conditions: Eastern equine encephalitis virus, Vero 76, 48 h, read-out: EEEV FL93-939 EC50

COc1ccc(-n2c([C@H]3CCCN3)nc3c(-c4ccc(C(F)(F)F)nc4)cc(C#N)cc3c2=O)cc1F [Example 100, (R)-3-(3-fluoro-4-methoxyphenyl)-4-oxo-2-(pyrrolidin-2-yl)-8-(6-(trifluoromethyl)pyridin-3-yl)-3,4-dihydroquinazoline-6-carbonitrile]
EC50 (VEEV TC83): 1 to 50 nM | EC50 (WEEV California): 1 to 50 nM | EC50 (EEEV BeAr 436087): 51 to 150 nM | EC50 (EEEV FL93-939): 51 to 150 nM

COc1ccc(-n2c([C@H]3CCCN3)nc3c(-c4cccnc4)cc(C#N)cc3c2=O)cc1F [Example 107, (R)-3-(3-fluoro-4-methoxyphenyl)-4-oxo-8-(pyridin-3-yl)-2-(pyrrolidin-2-yl)-3,4-dihydroquinazoline-6-carbonitrile]
EC50 (VEEV TC83): 1 to 50 nM | EC50 (WEEV California): 1 to 50 nM | EC50 (EEEV BeAr 436087): 1 to 50 nM | EC50 (EEEV FL93-939): 51 to 150 nM

COc1ccc(-n2c([C@H]3CCNC3)nc3ccc([N+](=O)[O-])cc3c2=O)cc1 [Example 18, (S)-3-(4-methoxyphenyl)-6-nitro-2-(pyrrolidin-3-yl) quinazolin-4 (3H)-one]
EC50 (VEEV TC83): 1 to 50 nM | EC50 (WEEV California): 151 to 500 nM | EC50 (EEEV BeAr 436087): 51 to 150 nM | EC50 (EEEV FL93-939): 151 to 500 nM

COc1ccc(-n2c([C@H]3CCCN3)nc3c(C)cc([N+](=O)[O-])cc3c2=O)cc1F [Example 59]
EC50 (VEEV TC83): 1 to 50 nM | EC50 (WEEV California): 1 to 50 nM | EC50 (EEEV BeAr 436087): 51 to 150 nM | EC50 (EEEV FL93-939): 51 to 150 nM

COc1ccc(-n2c([C@H]3CCCN3C)nc3ccc([N+](=O)[O-])cc3c2=O)cc1 [Example 10, (R)-3-(4-methoxyphenyl)-2-(1-methylpyrrolidin-2-yl)-6-nitroquinazolin-4 (3H)-one]
EC50 (VEEV TC83): 1 to 50 nM | EC50 (WEEV California): 151 to 500 nM | EC50 (EEEV BeAr 436087): 51 to 150 nM | EC50 (EEEV FL93-939): 151 to 500 nM

COc1ccc(-n2c(C3CCCN3)nc3c(-c4ccc(C)nc4)cc(C#N)cc3c2=O)cc1F (stereo not shown) [Example 101, 3-(3-fluoro-4-methoxyphenyl)-8-(6-methylpyridin-3-yl)-4-oxo-2-(pyrrolidin-2-yl)-3,4-dihydroquinazoline-6-carbonitrile]
EC50 (VEEV TC83): 1 to 50 nM | EC50 (WEEV California): 1 to 50 nM | EC50 (EEEV BeAr 436087): 51 to 150 nM | EC50 (EEEV FL93-939): 51 to 150 nM

COc1ccc(-n2c([C@H]3Cc4ccccc4N3)nc3c(-c4ccc(C)nc4)cc(C#N)cc3c2=O)cc1F [Example 128, (R)-3-(3-fluoro-4-methoxyphenyl)-2-(indolin-2-yl)-8-(6-methylpyridin-3-yl)-4-oxo-3,4-dihydroquinazoline-6-carbonitrile]
EC50 (VEEV TC83): 1 to 50 nM | EC50 (WEEV California): 151 to 500 nM

COc1ccc(-n2c([C@H]3CCCN3)nc3ccc([N+](=O)[O-])cc3c2=O)cc1 [Example 9, (R)-3-(4-methoxyphenyl)-6-nitro-2-(pyrrolidin-2-yl) quinazolin-4 (3H)-one]
EC50 (VEEV TC83): 1 to 50 nM | EC50 (WEEV California): 1 to 50 nM

COc1ccc(-n2c([C@@H]3C[C@@H]4CCCC[C@@H]4N3)nc3c(-c4ccc(C)nc4)cc(C#N)cc3c2=O)cc1F [Example 139, 3-(3-fluoro-4-methoxyphenyl)-8-(6-methylpyridin-3-yl)-2-((2S,3aS,7aS)-octahydro-1H-indol-2-yl)-4-oxo-3,4-dihydroquinazoline-6-carbonitrile]
EC50 (VEEV TC83): 1 to 50 nM | EC50 (WEEV California): 51 to 150 nM

COc1c(F)cc(-n2c(C34CC(CN3)C4)nc3c(-c4ccnc(C)c4)cc(C#N)cc3c2=O)cc1F [Example 173, 2-(2-azabicyclo[2.1.1]hexan-1-yl)-3-(3,5-difluoro-4-methoxyphenyl)-8-(2-methylpyridin-4-yl)-4-oxo-3,4-dihydroquinazoline-6-carbonitrile]
EC50 (VEEV TC83): 51 to 150 nM | EC50 (WEEV California): 51 to 150 nM

COc1ccc(-n2c(C3CCCN3)nc3c(-c4cnc(C)c(C)c4)cc(C#N)cc3c2=O)cc1F (stereo not shown) [Example 137, 8-(5,6-dimethylpyridin-3-yl)-3-(3-fluoro-4-methoxyphenyl)-4-oxo-2-(pyrrolidin-2-yl)-3,4-dihydroquinazoline-6-carbonitrile]
EC50 (VEEV TC83): 1 to 50 nM | EC50 (WEEV California): 1 to 50 nM

COc1ccc(-n2c(-c3ccccn3)nc3c(-c4ccc(C)nc4)cc(C#N)cc3c2=O)cc1F [Example 196, 3-(3-fluoro-4-methoxyphenyl)-8-(6-methylpyridin-3-yl)-4-oxo-2-(pyridin-2-yl)-3,4-dihydroquinazoline-6-carbonitrile]
EC50 (VEEV TC83): > 1000 nM | EC50 (WEEV California): > 1000 nM

COc1ccc(-n2c(C3CCCN3)nc3c(-c4ccc(CO)cc4)cc(C#N)cc3c2=O)cc1F (stereo not shown) [Example 134, 3-(3-fluoro-4-methoxyphenyl)-8-(4-(hydroxymethyl)phenyl)-4-oxo-2-(pyrrolidin-2-yl)-3,4-dihydroquinazoline-6-carbonitrile]
EC50 (VEEV TC83): 1 to 50 nM | EC50 (WEEV California): 1 to 50 nM

COc1ccc(-c2cc(C#N)cc3c(=O)n(-c4ccc(OC)c(F)c4)c(C4CCCN4)nc23)cn1 (stereo not shown) [Example 125, 3-(3-fluoro-4-methoxyphenyl)-8-(6-methoxypyridin-3-yl)-4-oxo-2-(pyrrolidin-2-yl)-3,4-dihydroquinazoline-6-carbonitrile]
EC50 (VEEV TC83): 1 to 50 nM | EC50 (WEEV California): 1 to 50 nM

COc1ccc(-n2c(C3CCCN3)nc3c(-c4ccc(C#N)nc4)cc(C#N)cc3c2=O)cc1F (stereo not shown) [Example 126, 8-(6-cyanopyridin-3-yl)-3-(3-fluoro-4-methoxyphenyl)-4-oxo-2-(pyrrolidin-2-yl)-3,4-dihydroquinazoline-6-carbonitrile]
EC50 (VEEV TC83): 1 to 50 nM | EC50 (WEEV California): 51 to 150 nM

O=c1c2cc([N+](=O)[O-])ccc2nc([C@@H]2CCCN2)n1-c1ccc(OC(F)(F)F)cc1 [Example 46, (S)-6-nitro-2-(pyrrolidin-2-yl)-3-(4-(trifluoromethoxy)phenyl)quinazolin-4 (3H)-one]
EC50 (VEEV TC83): > 1000 nM | EC50 (WEEV California): > 1000 nM

[N-]=[N+]=Nc1cccc(-n2c([C@H]3CCCN3)nc3ccc([N+](=O)[O-])cc3c2=O)c1 [Example 17, (R)-3-(3-azidophenyl)-6-nitro-2-(pyrrolidin-2-yl) quinazolin-4 (3H)-one]
EC50 (VEEV TC83): 151 to 500 nM | EC50 (WEEV California): > 1000 nM

COc1ccc(-n2c([C@@H]3CCCN3)nc3c(C)cc([N+](=O)[O-])cc3c2=O)cc1F [Example 69, (S)-3-(3-fluoro-4-methoxyphenyl)-8-methyl-6-nitro-2-(pyrrolidin-2-yl) quinazolin-4 (3H)-one]
EC50 (VEEV TC83): 151 to 500 nM | EC50 (WEEV California): 51 to 150 nM

COc1ccc(-n2c([C@H]3CCCN3)nc3c(-c4ccncc4)cc([N+](=O)[O-])cc3c2=O)cc1F [Example 82, (R)-3-(3-fluoro-4-methoxyphenyl)-6-nitro-8-(pyridin-4-yl)-2-(pyrrolidin-2-yl) quinazolin-4 (3H)-one]
EC50 (VEEV TC83): 1 to 50 nM | EC50 (WEEV California): 1 to 50 nM

COc1ccc(-n2c(C3CCCN3)nc3c(-c4cnc(OC)c(OC)c4)cc(C#N)cc3c2=O)cc1F (stereo not shown) [Example 135, 8-(5,6-dimethoxypyridin-3-yl)-3-(3-fluoro-4-methoxyphenyl)-4-oxo-2-(pyrrolidin-2-yl)-3,4-dihydroquinazoline-6-carbonitrile]
EC50 (VEEV TC83): 1 to 50 nM | EC50 (WEEV California): 1 to 50 nM

COc1ccc(-n2c([C@@H]3CCCN3)nc3ccc(F)c(F)c3c2=O)cc1 [Example 30, (S)-5,6-difluoro-3-(4-methoxyphenyl)-2-(pyrrolidin-2-yl) quinazolin-4 (3H)-one]
EC50 (VEEV TC83): > 1000 nM | EC50 (WEEV California): > 1000 nM

COc1ccc(-n2c([C@H]3CCCN3)nc3c(-c4ccnc(F)c4)cc(C#N)cc3c2=O)cc1F [Example 104, (R)-3-(3-fluoro-4-methoxyphenyl)-8-(2-fluoropyridin-4-yl)-4-oxo-2-(pyrrolidin-2-yl)-3,4-dihydroquinazoline-6-carbonitrile]
EC50 (VEEV TC83): 1 to 50 nM | EC50 (WEEV California): 1 to 50 nM

COc1ccc(-n2c(C3CC4CCC3N4)nc3c(-c4ccc(C)nc4)cc(C#N)cc3c2=O)cc1F (stereo not shown) [Example 143, 2-(7-azabicyclo[2.2.1]heptan-2-yl)-3-(3-fluoro-4-methoxyphenyl)-8-(6-methylpyridin-3-yl)-4-oxo-3,4-dihydroquinazoline-6-carbonitrile]
EC50 (VEEV TC83): 51 to 150 nM | EC50 (WEEV California): 151 to 500 nM

COc1c(F)cc(-n2c(C3C[C@H](F)CN3)nc3c(-c4ccnc(C)c4)cc(C#N)cc3c2=O)cc1F (stereo partly drawn) [Example 156, 3-(3,5-Difluoro-4-methoxyphenyl)-2-((4S)-4-fluoropyrrolidin-2-yl)-8-(2-methylpyridin-4-yl)-4-oxo-3,4-dihydroquinazoline-6-carbonitrile]
EC50 (VEEV TC83): 1 to 50 nM | EC50 (WEEV California): 151 to 500 nM

COc1ccc(-n2c([C@@H]3CCCN3)nc3c(-c4ccncc4)cc([N+](=O)[O-])cc3c2=O)cc1F [Example 84, (S)-3-(3-fluoro-4-methoxyphenyl)-6-nitro-8-(pyridin-4-yl)-2-(pyrrolidin-2-yl) quinazolin-4 (3H)-one]
EC50 (VEEV TC83): 1 to 50 nM | EC50 (WEEV California): 1 to 50 nM

COc1c(F)cc(-n2c(C3CCCN3)nc3c(-c4ccc(CO)nc4)cc(C#N)cc3c2=O)cc1F (stereo not shown) [Example 180, 3-(3,5-difluoro-4-methoxyphenyl)-8-(6-(hydroxymethyl)pyridin-3-yl)-4-oxo-2-(pyrrolidin-2-yl)-3,4-dihydroquinazoline-6-carbonitrile]
EC50 (VEEV TC83): 1 to 50 nM | EC50 (WEEV California): 1 to 50 nM

COc1ccc(-n2c([C@H]3CCCN3)nc3ccc([N+](=O)[O-])cc3c2=O)c(F)c1 [Example 25, (R)-3-(2-fluoro-4-methoxyphenyl)-6-nitro-2-(pyrrolidin-2-yl) quinazolin-4 (3H)-one]
EC50 (VEEV TC83): 51 to 150 nM | EC50 (WEEV California): 151 to 500 nM

COc1ccc(-n2c([C@H]3CCCN3)nc3cc(F)c(C#N)cc3c2=O)cc1 [Example 34, (R)-7-fluoro-3-(4-methoxyphenyl)-4-oxo-2-(pyrrolidin-2-yl)-3,4-dihydroquinazoline-6-carbonitrile]
EC50 (VEEV TC83): 51 to 150 nM | EC50 (WEEV California): 51 to 150 nM

COc1ccc(-n2c([C@@H]3CCCN3C3CCOCC3)nc3ccc(F)c(F)c3c2=O)cc1 [Example 31, (S)-5,6-difluoro-3-(4-methoxyphenyl)-2-(1-(tetrahydro-2H-pyran-4-yl)pyrrolidin-2-yl) quinazolin-4 (3H)-one]
EC50 (VEEV TC83): > 1000 nM | EC50 (WEEV California): > 1000 nM
